Data reported in article PMC12691742, “Anti-Cancer Outcome of Glucocorticoid Receptor Transrepression by Synephrine Derivatives in Hematological Malignancies” (International Journal of Molecular Sciences, 2025).
Entries after “also recorded” stand apart in the source; their conditions may differ.

What was measured:
[1] = system: FKBP51, GILZ, DDIT4 mRNA expression in K562 and Granta cells; test: Q-PCR of GR transactivation marker genes; assay type: cell-based; details: 4 h (FKBP51, GILZ) or 24 h (DDIT4); Dex 10 µM, 10S-E2 0.1 µM; vs control
Excerpt: (§1) Q-PCR results were confirmed by Western blot analysis of the level of GR phosphorylated by Ser211, known as a crucial protein modification for GR TA realization because of its binding to short cysteine-rich fragments of the coactivator CREB-binding protein [41].
(§2) Figure 3 Effects of synephrine derivatives on GR transactivation in Granta lymphoma and K562 leukemia cells. (A) Q-PCR analysis of FKBP51, GILZ, and DDIT4 mRNA expression in K562 and Granta cells. […] The Q-PCR results were normalized to the expression of the housekeeping gene RPL27 and are presented as fold changes compared to the control. The mean ± SD was calculated for three individual samples/condition (n = 3). Statistically significant differences compared to the control: * p < 0.05, ** p < 0.01. (B) The levels of the nuclear fraction of phospho-GR (Ser211) were determined using Western blot analysis (n = 3; characteristic images are presented in the figure). Histone H3 was used as a loading control.
(§3) Total RNA isolation from cell cultures and murine bones, reverse transcription, and Q-PCR were performed as described in [36]. Primers were designed using NCBI Primer-BLAST https://www.ncbi.nlm.nih.gov/tools/primer-blast/, accessed on 25 August 2025 (Supplementary Table S1). Results were normalized to the expression of the housekeeping RPL27 и Rpl27 genes. The experiments were performed in triplicate.

[2] = system: GR phosphorylated by Ser211 in K562 and Granta cells; test: Western blot of nuclear phospho-GR (Ser211); assay type: cell-based; details: 10 h; Dex 10 µM, 4S-C2 50 µM, 8S-E3 50 µM, 10S-E2 15 µM, 13S-G2 25 µM
Description: as §2
Western blot analysis was performed as previously described. Proteins were resolved using SDS-PAGE. Membranes were blocked with 5% nonfat milk solution and then incubated with primary antibodies against phosphorylated GR (pGR, Ser211) (“Santa Cruz Biotechnology”, Santa Cruz, CA, USA) overnight at 4 °C. To verify equal protein loading and adequate transfer, the membranes were probed with Histone H3 antibodies (“Cell Signaling”, Boston, MA, USA). Goat anti-rabbit IgGs (“Jackson Immuno Research”, West Grove, PA, USA) were used as secondary antibodies. Signals were detected using ECL reagent and an ImageQuant LAS4000 system (“GE HealthCare”, Chicago, IL, USA). ImageJ 1.54h software was used for densitometry. The experiments were performed in triplicate.
7 K562, pGR nuclear 5 Granta, pGR nuclear
Supplementary Figure S 22. Quantification of Western blot analysis. K562 and Granta cells […]
μM) and 13S-G2 (25 μ M) for 10 h. Quantification of Western blot anal ysis of p- GR protein levels was done usin g Im a ge J f ree so ftwar e. Statisticall y significant diff eren ces as compared to control: […]

[3] = system: Granta cells; test: Cell cycle analysis by PI flow cytometry in Granta cells; assay type: cell-based; details: 24 h, Dex 50 µM, 4S-C2 25 µM, 8S-E3 12.5 µM, 10S-E2 6.25 µM, 13S-G2 1 µM
Description: (§4) Figure 5 Pro-apoptotic and anti-cancer effects of synephrine derivatives in vitro and in vivo. (A) Effect of 4S-C2, 8S-E3, 10S-E2, and 13S-G2 on cell cycle progression in K562 and Granta cells after 24 h of incubation. The cells were fixed with ethanol, stained with propidium iodide, and analyzed using flow cytometry. Statistically significant difference compared to control: *—p < 0.05, **—p < 0.01 (n = 3). (B) In vivo anti-cancer activity was evaluated using the transplantable P388 murine lymphoma model. […] Tumor nodule size was measured twice a week using digital calipers. Statistically significant differences compared to the control: * p < 0.05, ** p < 0.01.
The distribution of cells by cell cycle phases was evaluated using propidium iodide (PI) staining, as described in [19]. […] After incubation, the cells were resuspended in 70% ethanol and fixed for 2h at 4 °C. Cells were then washed twice with cold PBS, pH 7.4, and stained with 500 µL of cold propidium iodide (PI) solution (50 µg/mL PI, 1% Triton X-100, and 100 µg/mL RNase A in PBS). The cell cycle distribution of cells in samples was analyzed using an FACSCalibur Flow Cytometer (“BD Biosciences”, San Jose, CA, USA). The experiments were performed in triplicate.

[4] = system: P388 murine lymphoma; test: Transplantable P388 murine lymphoma model; assay type: in vivo, mice; details: Dex 1 mg/kg
Description: as §4
The protocol for the experiment was approved by the local N.N. Blokhin National Medical Research Center Ethics Committee and corresponded to the guidelines for the welfare and use of animals in cancer research adopted by The United Kingdom Coordinating Committee on Cancer Prevention Research. P388 cells were injected i.p. into 5-week-old female DBA/2 mice (“Stolbovaya Farm”, Stolbovaya, Russia). After 15 days, the cells were collected from the peritoneum, washed, and resuspended in PBS. For the experiments, 0.1 mL containing 2 million cells obtained from the ascites was inoculated s.c. in 5-week-old female BDF1 mice (“Stolbovaya Farm”, Stolbovaya, Russia). […] Body weight was recorded twice a week for toxicity determination. Tumor size was measured three times per week using digital calipers.

[5] = system: BALB/c female mice; test: Glucocorticoid-induced osteoporosis model: bone and skin morphometry, body weight; assay type: in vivo; details: Dex 20 mg/kg
Excerpt: (§5) (A) H&E bone staining and quantification of cortical bone thickness. (B) Q-PCR analysis of Rankl, Mmp9, Tsc2, Trap, and Bglap mRNA expression in bone tissue. […] (C) H&E skin staining and quantification of dermal adipose thickness (50 images per treatment group of 10 animals). Statistically significant differences compared to the control: * p < 0.05, ** p < 0.01.
(§6) The protocol for the experiment was approved by the local N.N. Blokhin National Medical Research Center Ethics Committee and corresponded to the guidelines for the welfare and use of animals in cancer research adopted by The United Kingdom Coordinating Committee on Cancer Prevention Research. […] Body weight was recorded twice a week for toxicity control.
Bone and skin samples from the GIOP experiment were fixed in formaldehyde and embedded in paraffin, and sections were stained with hematoxylin and eosin. After formaldehyde fixation, the bone samples were decalcified in decalcification buffer (0.5 M EDTA, 0.7 mM NaOH, pH7.0) for 14 days, washed twice with PBS, and further processed according to the standard histology protocol. The dermal adipose and bone thickness were quantified in sections stained with hematoxylin and eosin. At least five individual fields per slide of each sample/treatment (at least 50 images/treatment group) were analyzed using Axioplan2 microscope software (“Carl Zeiss”, Jena, Germany). The dermal adipose or bone thickness in treated animals is presented as a percentage of the control animals.

[6] = system: Rankl, Mmp9, Tsc2, Trap, Bglap mRNA expression in bone tissue; test: Glucocorticoid-induced osteoporosis model: Q-PCR of marker genes in bone tissue; assay type: in vivo, mice; details: 5 weeks, Dex 20 mg/kg
Description: as §5
Total RNA isolation from cell cultures and murine bones, reverse transcription, and Q-PCR were performed as described in [36]. […] Results were normalized to the expression of the housekeeping RPL27 и Rpl27 genes. The experiments were performed in triplicate.
as §6

[7] = molecular target: T1, GR (Homo sapiens, UniProt P04150); test: GR radioligand binding assay, competition with [3H]Dex in K562 cells
T1 construct: endogenous in cells; host or cells: K562
T1 sequence (P04150 1-777): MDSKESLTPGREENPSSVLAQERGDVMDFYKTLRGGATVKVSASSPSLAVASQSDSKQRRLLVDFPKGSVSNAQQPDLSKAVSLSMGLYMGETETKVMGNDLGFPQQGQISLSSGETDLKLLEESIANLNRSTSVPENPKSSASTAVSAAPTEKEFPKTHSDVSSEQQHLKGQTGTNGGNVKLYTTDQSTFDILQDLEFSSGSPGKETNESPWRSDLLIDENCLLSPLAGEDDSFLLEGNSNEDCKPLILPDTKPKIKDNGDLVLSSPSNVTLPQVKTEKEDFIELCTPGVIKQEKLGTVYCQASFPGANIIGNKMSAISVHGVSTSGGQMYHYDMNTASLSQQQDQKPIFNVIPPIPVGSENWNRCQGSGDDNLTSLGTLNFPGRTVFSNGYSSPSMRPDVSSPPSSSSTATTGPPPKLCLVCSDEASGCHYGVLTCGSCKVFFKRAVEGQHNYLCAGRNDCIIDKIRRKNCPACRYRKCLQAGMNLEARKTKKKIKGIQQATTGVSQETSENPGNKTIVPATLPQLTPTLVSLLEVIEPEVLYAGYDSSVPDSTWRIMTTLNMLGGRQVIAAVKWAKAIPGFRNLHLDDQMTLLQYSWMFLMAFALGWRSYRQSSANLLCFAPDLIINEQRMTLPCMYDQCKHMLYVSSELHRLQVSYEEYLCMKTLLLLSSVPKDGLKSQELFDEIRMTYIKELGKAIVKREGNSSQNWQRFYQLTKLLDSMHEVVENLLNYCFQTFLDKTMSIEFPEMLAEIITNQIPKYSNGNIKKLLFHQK
Description: (A,B). […] The stability of the complex was simulated using molecular dynamics in the GROMACS program. (C) GR binding affinity was estimated using a radioligand binding assay. […] Cell lysate radioactivity was measured using a RackBeta 1215 LC (LKB Wallac, Turku, Finland) spectrometer for 4 min. […] The experiments were performed in triplicate (n = 3).
After 90 min of incubation, the cells were washed twice by centrifugation in cold serum-free medium (1500 rpm, 5 min). The cells were then lysed with RIPA buffer (50 mM Tris (pH 8.0), 150 mM NaCl, 1 mM ethylenediaminetetraacetic acid, 0.1% sodium dodecyl sulfate, 0.5% sodium deoxycholate, 1% triton-X100, 10% glycerin, and protease inhibitor) for 20 min. Lysates were transferred to scintillation liquid, and radioactivity was measured using a RackBeta 1215 LC spectrometer for 4 min. […] IC50 was determined using GraphPad Prism software, Ver.7.0. […] “Top” meant the highest value in dpm and was equal to 100%, while the “bottom” was considered as the lowest value (0%). […] The IC50 values for each ligand were determined by plotting these curves. The experiments were performed in triplicate.

[8] = system: DDIT4 expression in K562 cells; test: Q-PCR of DDIT4 in K562 cells; assay type: cell-based; details: 24 h, 8S-E3 25 µM
Excerpt: as §1, §2, §3

[9] = system: DDIT4 expression in Granta cells; test: Q-PCR of DDIT4 in Granta cells; assay type: cell-based; details: 24 h, 8S-E3 25 µM
Excerpt: as §1, §2, §3

[10] = system: leukemia and lymphoma cells (Granta, K562); set-up: method as in PMID 39858397; details: leukemia and lymphoma cells; read-out: cell viability IC50; cited from earlier work
[11] = i.p. every 24 h for 5 weeks, 10S-E2 10 mg/kg

Row | Bglap mRNA expression in bone tissue [6] | Rankl mRNA expression in bone tissue ([6]; 10S-E2 10 mg/kg) | Trap mRNA expression in bone tissue ([6]; 10S-E2 10 mg/kg) | IC50 [7] [µM] | SMILES | expression of TA marker genes FKBP51, GILZ, DDIT4 [1] | GR phosphorylation level at Ser211 [2] | level of apoptosis (sub-G1-phase cell population) [3] | animal body weight change vs control ([4]; P388 model, 10S-E2 10 mg/kg i.p. 3 times per week) | inhibition of tumor growth ([4]; s.c. P388 in BDF1 mice, i.p. 3 times per week, 10S-E2 10 mg/kg) | animal body weight vs control ([5]; GIOP study, 10S-E2 10 mg/kg i.p. every 24 h for 5 weeks) | loss of cortical bone thickness [5, 11] [%] | reduction of dermal adipose tissue / skin atrophy [5, 11] | Mmp9 mRNA expression in bone tissue ([6]; 10S-E2 10 mg/kg) | Tsc2 mRNA expression in bone tissue ([6]; 10S-E2 10 mg/kg) | DDIT4 expression [8] | decrease in DDIT4 expression [9] | IC50 [10] [µM]
1 | Downregulation | upregulation | upregulation | – | C[C@@H]1C[C@H]2[C@@H]3CCC4=CC(=O)C=C[C@]4(C)[C@@]3(F)[C@@H](O)C[C@]2(C)[C@@]1(O)C(=O)CO [Dex, dexamethasone, reference compound] | 5-30 fold | weak increase | higher than that in the control samples | no statisticall y si gnificant differences | 60–70% | no statisticall y si gnificant differences; also recorded: similar | 30 | approximately 70% | tendency toward Mmp9 and Tsc2 upregulation | tendency toward Mmp9 and Tsc2 upregulation | – | – | –
2 | – | – | – | 0.08 | OCCNCC(O)c1ccc(OCc2ccccc2)cc1 (stereo not drawn) [8S-E3, 1-(4-(benzyloxy)phenyl)-2-((2-hydroxyethyl)amino)ethanol] | – | weak increase | – | – | – | – | – | – | – | – | strongly attenuated DDIT4 expression by more than three times | 1,5 fold | 80 to 120
